Reference: patent publication US20250161419A1, “SERPIN PEPTIDES AND METHODS OF USING THE SAME” (SERPIN PHARMA, LLC, priority 2022, published 2025)

How the values were obtained:
[1] = system: MC903 induced atopic dermatitis and pruritis in mice; assay: MC903 (calcipotriol) induced AD-like inflammatory skin model, topical treatment: dermatitis score, ear volume, scratching; format: in vivo, mouse
Experimental: SP16 (in 70% ethanol) was applied topically to the ears on the days of the MC903 applications (MC903+SP16). Drug vehicle (70% EtOH) was applied to control animals (MC903) and normal control animals (NC) received EtOH in place of MC903. In-life parameters: Dermatitis score (FIG. 16A) and ear volume (FIG. 16B) measured on days 0, 3, 7, 9, 11 and 14. […] Clinical Dermatitis Score (score 0-4 for each parameter)-erythema, scale/dryness, edema, excoriation/erosion (total score 0-16).
Mice were treated with SP16 in 70% EtOH (MC903+SP16) or drug vehicle (MC903). Normal control (NC) mice were treated with EtOH only. Ears were measured for PAR2 protein expression through western blot analysis (quantitative analysis after normalization to beta-actin shown) (n=3-5). TSLP was measured in both the ears and serum by ELISA (N=3-5). Scratching was assessed over a 3 minute period after a 5-minute acclimatization period and the number of scratches are shown (n=3). IL-4 was measured in ear lysate via ELISA (N=3-5).

[2] = system: NFκB; assay: NFκB reporter assay stimulated with LPS (THP1-XBlue-MD2-GD14 reporter cells, SEAP read-out); format: cell-based; details: peptide 50 μg/ml before LPS 5 ng/ml, overnight
Experimental: The reporter cells (THP1-XBlue-MD2-GD14 cells) were treated with each peptide (50 μg/ml) before being insulted with LIPS (5 ng/ml) and incubated overnight. The NFκB inducible Secreted Embryonic Alkaline Phosphatase (SEAP) was measured in the supernatant and read for absorbance.

[3] = system: eosinophil infiltration into the lungs of mice; assay: OVA-induced allergic inflammation model, eosinophils in BALF by flow cytometry; format: in vivo, mouse; details: p=0.04
Experimental: FIG. 15A: mice were subjected to the OVA-challenge allergic inflammation model and treated with vehicle, SP16, or A1AT during the challenge phase. The BALF was collected and analyzed for the percent of eosinophils and compared to saline (non-challenged) mice, vehicle OVA induced mice, or SP16 treated OVA induced mice.
The impact of SP16 treatment on eosinophilic infiltration in mice was assessed using the OVA-induced allergic inflammation model. The number of eosinophils in the bronchoalveolar lavage fluid was quantified by flow cytometry.

[4] = system: CCL26; assay: CCL26 release by esophageal epithelial cells (EPC2); format: cell-based, human
Experimental: FIG. 12A: Poly I:C-induced TSLP production by SPINK7 knockout EPC2 cells (Human esophageal epithelial cells). SPINK7 KO cells and control cells were plated in high calcium and high density, for 48 hours before being treated with SP16 or 7G and Poly I:C (5 μg/ml, or untreated) for 8 hours. TSLP production in the supernatant was measured by ELISA. FIG. 12B: primary esophageal epithelial cells (EPC2) were treated with SP16 and then stimulated with IL-13, a TH2 response mediated cytokine, to induce CCL26.
SP16 reduces several key cytokines involved in allergic responses. Upon knockout of SPINK7, esophageal epithelial cells release exacerbated levels of TSLP. TSLP is a key mediator of immune cell responses upon activation to an insult such as allergens.

For “VKFNKPFVFLMIEQNTK (SP16 peptide core sequence including the LRP1 binding site; listed as Homo sapiens)”, the “disease (dermatitis score, ear volume)” value ([1]; topical solution (1%) in 70% ethanol, 14-day period, vs vehicle-treated mice) was “significant improvement in disease vs. vehicle-treated mice”, the “pruritis (number of scratches over 3 minutes)” value ([1]; topical, vs vehicle (MC903) treated mice) was “significantly reduces pruritis” and the “NFκB activity (NFκB inducible SEAP in supernatant)” value [2] was “capable of reducing NFκB activity”. The “eosinophil infiltration into the lungs (eosinophils in BALF)” value [3] was “reduces eosinophil infiltration into the lungs”, the “CCL26 release (text: Poly 1:C mediated)” value ([4]; primary SPINK7 knockout esophageal cells) was “effective in significantly reducing Poly 1:C mediated TSLP and CCL26 release” and the “CCL26 release induced by IL-13” value ([4]; primary esophageal epithelial cells (EPC2), SP16 then IL-13) was “significantly reduced CCL26 release dose dependently”.
